PMC13233820, “Recruitment of Mre11 to recombination sites during meiosis” (Nature Communications, 2026)

Columns and labels:
Smt3 = biological target: T1, Smt3 (Saccharomyces cerevisiae, UniProt Q12306); assay: Isothermal titration calorimetry, SIM3 peptides on Smt3; format: binding; conditions: 2 mM peptide in syringe, 20 mM NaPi 100 mM NaCl pH 7.5, 10% DMSO, 25 °C
T1 construct: 6xHis (C); made in house; host or cells: E. coli BL21 (DE3)pLysS
Method: The syringe contained 2 mM of peptide, while the cell held 150 µM or 300 µM of protein. […] For the ITC titrations, equal amounts of DMSO (10%) were included in both compartments to minimize the heat of dilution. Each titration consisted of a first injection of 0.4 µL, followed by 12-13 injections of 2 µL peptide into the cell, separated by intervals of 120 s. The first injection was discarded during the analysis of the data. The wild-type peptide titration on Smt3 was performed in duplicate. The Microcal LLC ITC200 Origin software was used to fit the data to a single binding site model.

U-[13C,15N] Smt3 = assay: NMR chemical shift perturbation, SIM3 peptides with Smt3; format: binding, Saccharomyces cerevisiae; conditions: 1.2 molar equivalents of peptide, 0.3 mM Smt3, 20 mM sodium phosphate, 20 mM NaCl pH 6.5, 298 K
Method: The samples contained 0.3–0.6 mM of U-[^13C,^15N] […] All NMR spectra were acquired at 298 K on a Bruker Avance III HD 800 MHz spectrometer, equipped with a TCI cryoprobe. The NMR data were acquired in TopSpin 3.6 (Bruker) and processed in NMRPipe v.7.5[76] and analyzed in CCPNMR v. 2.4.2[77]. Assignments of Smt3 backbone amide resonances were taken from literature[78] and verified by 3D HNCACB, HN(CO)CACB, and ^15N-edited NOESY-HSQC (mixing time 100 ms) spectra. Further assignments of methyl resonances were obtained from [^1H, ^13C] […] The assigned ^1H, ^13C and ^15N chemical shifts of the free and bound Smt3 have been deposited in the Biological Magnetic Resonance Bank (http://www.bmrb.wisc.edu/) under the accession number 53209.
The NMR binding experiments were performed by an incremental addition of wild-type or mutant SIM peptides (1.2 mM stocks in the working buffer) to 0.3 mM samples of U-[^13C,^15N] Smt3, with the spectral changes monitored in [^1H,^15N] HSQC spectra acquired at each increment and [^1H, ^13C] […] The average chemical shift perturbations (Δδavg) were calculated as Δδavg = (ΔδX^2/n + ΔδH^2/2)^0.5, where ΔδX and ΔδH are the chemical shift changes of the backbone amide nitrogens or methyl carbons (ΔδX) and protons (ΔδH) of Smt3 residues upon addition of 1.2 molar equivalents of SIM peptides, and n = 50 or 9 for the backbone amide and methyl groups, respectively.

T1 sequence (Q12306 whole entry): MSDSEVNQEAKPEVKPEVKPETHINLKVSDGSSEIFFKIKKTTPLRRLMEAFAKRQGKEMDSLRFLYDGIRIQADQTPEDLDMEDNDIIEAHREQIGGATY

Sequence | ITC interaction with Smt3 (Smt3) | Average backbone amide chemical shift perturbation of Smt3 (in words) (U-[13C,15N] Smt3)
ENDAIAVSTDE [mutant SIM3 peptide, SIM3 peptide with I633 and M635 mutated to alanine] | failed to interact with Smt3 | 
ENDIIMVSTDE [wild-type SIM3 peptide] |  | induced strong backbone amide chemical shift to Smt3 residues I35, F36, F37, K38, I39 and R46
